Data as given in PubChem BioAssay AID1845196 (Molecular Pharmacology Branch, DTP, NCI, 2023).

System: 292921-168-R tumor spheroid viability
Assay: Anticancer human tumor 292921-168-R patient-derived pancreatic carcinoma cell line growth inhibition
Conditions: spheroids with HUVEC and MSC; for IC50: curve of first compound; for viability, T/C: stronger effect = lower value
Summary of the method: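 Complex tumor spheroids combined malignant cells with endothelial cells and mesenchymal stem cells. DNA-damaging drugs and DNA repair inhibitors were tested alone and in combination, at half-log dilutions down from clinical Cmax (top 10 microM if Cmax unknown), 0.25% DMSO final.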

[1] = second compound 1 µM, first compound 0.0316 µM
[2] = second compound 1 µM, first compound 0.1 µM
[3] = second compound 1 µM, first compound 0.316 µM
[4] = second compound 1 µM, first compound 1 µM
[5] = second compound 1 µM, first compound 3.16 µM
[6] = second compound 1 µM, first compound 10 µM
[7] = second compound 3.16 µM, first compound 0.0316 µM
[8] = second compound 3.16 µM, first compound 0.1 µM
[9] = second compound 3.16 µM, first compound 0.316 µM
[10] = second compound 3.16 µM, first compound 1 µM
[11] = second compound 3.16 µM, first compound 3.16 µM
[12] = second compound 3.16 µM, first compound 10 µM
[13] = second compound 10 µM, first compound 0.0316 µM
[14] = second compound 10 µM, first compound 0.1 µM
[15] = second compound 10 µM, first compound 0.316 µM
[16] = second compound 10 µM, first compound 1 µM
[17] = second compound 10 µM, first compound 3.16 µM
[18] = second compound 10 µM, first compound 10 µM
[19] = second compound 31.6 µM, first compound 0.0316 µM
[20] = second compound 31.6 µM, first compound 0.1 µM
[21] = second compound 31.6 µM, first compound 0.316 µM
[22] = second compound 31.6 µM, first compound 1 µM
[23] = second compound 31.6 µM, first compound 3.16 µM
[24] = second compound 31.6 µM, first compound 10 µM
[25] = second compound 100 µM, first compound 0.0316 µM
[26] = second compound 100 µM, first compound 0.1 µM
[27] = second compound 100 µM, first compound 0.316 µM
[28] = second compound 100 µM, first compound 1 µM
[29] = second compound 100 µM, first compound 3.16 µM
[30] = second compound 100 µM, first compound 10 µM
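Further: spheroids exposed to compounds for 7 days.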

SMILES | IC50 (second compound 1 µM) [µM] | IC50 (second compound 3.16 µM) [µM] | IC50 (second compound 10 µM) [µM] | IC50 (second compound 31.6 µM) [µM] | IC50 (second compound 100 µM) [µM] | viability, T/C [1] [%] | viability, T/C [2] [%] | viability, T/C [3] [%] | viability, T/C [4] [%] | viability, T/C [5] [%] | viability, T/C [6] [%] | viability, T/C [7] [%] | viability, T/C [8] [%] | viability, T/C [9] [%] | viability, T/C [10] [%] | viability, T/C [11] [%] | viability, T/C [12] [%] | viability, T/C [13] [%] | viability, T/C [14] [%] | viability, T/C [15] [%] | also measured
CC(C)n1c(=O)n(C)c2cnc3cc(F)c(-c4ccc(OCCCN5CCCCC5)nc4)cc3c21 + Cn1nnc2c(C(N)=O)ncn2c1=O | 4.66 | 5.43 | 5.38 | 4.64 | 4.29 | 96.5 | 94.2 | 89.6 | 79.6 | 63.3 | 26 | 99.2 | 94.8 | 85.6 | 86.8 | 73.8 | 25.1 | 90.4 | 96.2 | 89.5 | viability, T/C [16]: 84.2%; viability, T/C [17]: 69.8%; viability, T/C [18]: 27.4%; viability, T/C [19]: 89.9%; viability, T/C [20]: 91.2%; viability, T/C [21]: 83.6%; viability, T/C [22]: 77.9%; viability, T/C [23]: 62.8%; viability, T/C [24]: 25.9%; viability, T/C [25]: 72.2%; viability, T/C [26]: 74.1%; viability, T/C [27]: 79.6%; viability, T/C [28]: 77.2%; viability, T/C [29]: 57.9%; viability, T/C [30]: 28.1%
COc1ccc([C@@H](O)c2cc(-c3ncnc4cc(N5CCOCC5)ccc34)c(F)cc2Cl)nn1 + Cn1nnc2c(C(N)=O)ncn2c1=O | 1.23 | 1.47 | 1.29 | 1.14 | 0.899 | 96.4 | 91.1 | 70.9 | 55.5 | 32.5 | 17.9 | 101 | 95.5 | 82.2 | 60.1 | 31.6 | 19 | 97.5 | 91.6 | 84.9 | viability, T/C [16]: 51%; viability, T/C [17]: 35.5%; viability, T/C [18]: 18.2%; viability, T/C [19]: 95.5%; viability, T/C [20]: 92.5%; viability, T/C [21]: 81.5%; viability, T/C [22]: 51.2%; viability, T/C [23]: 30.4%; viability, T/C [24]: 18.6%; viability, T/C [25]: 93%; viability, T/C [26]: 88.5%; viability, T/C [27]: 77.7%; viability, T/C [28]: 45%; viability, T/C [29]: 30.4%; viability, T/C [30]: 18.9%
